Holding throughout (assay): NCI tumour cell line growth inhibition, 48 h
Assay [1] has as its system MALME-3M melanoma.
The test system of assay [2] is K-562 leukemia.
Assay [3] concerns UACC-257 melanoma.
Assay [4] concerns NCI-H522 lung.
In assay [5] the test system is SNB-75 CNS.
The subject of assay [6] is IGROV1 ovarian.
Assay [7] concerns A549 NSCLC.
The test system of assay [8] is OVCAR-4 ovarian.
Assay [9] deals with A498 renal.
Assay [10] relates to SK-MEL-5 melanoma.
For assay [11], the system named is SW-620 colon.
Assay [12] relates to SK-OV-3 ovarian.
Assay [13] deals with M14 melanoma.
The subject of assay [14] is UO-31 renal.
In assay [15] the test system is HCT-15 colon.

We go through nine compounds from PubChem BioAssay (NCI).

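Five compound concentrations were applied to cells in 96-well plates for 48 hours; endpoints were derived by simple linear interpolation of the resulting dose-response curve. TGI is the concentration that stops growth completely.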

Take `COc1cc(OC)c2c(c1)C(=O)C(CC(C)O)=CC2=O` (stereo unspecified): the TGI came to 37.3 µM in [1]; 78.8 µM in [2]; 30.7 µM in assay [3]; 30.9 µM in [4]; 41 µM in assay [5]; 34.2 µM in assay [6]. The TGI in assay [7] was found to be 37.1 µM; in assay [8], 31.9 µM; in [9], 31.7 µM; in assay [10], 28 µM; in [11], 31.7 µM; in assay [12], 31.9 µM. The TGI in [13] turned out to be 32.9 µM; in assay [14], 29.9 µM; in assay [15] it was 27.7 µM.

In the case of `CCc1ccccc1NC(=O)C(=O)CC(=O)c1sc(Nc2ccccc2)nc1C`, the TGI in assay [1], in [2], in assay [3], in assay [4], in assay [5] and in assay [6] was greater than 100 µM throughout. Besides, the TGI in assay [7], in [8], in assay [9], in [10], in assay [11] and in [12] was greater than 100 µM each time. The TGI in assay [13], in assay [14] and in assay [15] was greater than 100 µM in each case.

Take `Nn1c(NNC(=O)C(=O)Nc2cc(Cl)c(Cl)cc2Cl)n[nH]c1=S`: the TGI in assay [1], in [2], in assay [3], in assay [4], in assay [5] and in assay [6] was greater than 100 µM in each case. The TGI in [7], in [8], in assay [9], in assay [10], in assay [11] and in [12] was greater than 100 µM throughout. Further, the TGI in assay [13], in assay [14] and in assay [15] was greater than 100 µM in each case.

Take `CC1SC2=NC3=C(c4ccccc4C3=O)C(c3ccc(F)cc3)N2C1=O` (stereo unspecified): the TGI in assay [1], in [2], in assay [3], in assay [4], in assay [5] and in assay [6] was greater than 100 µM each time. Besides, the TGI in assay [7], in [8], in assay [9], in assay [10], in assay [11] and in assay [12] was greater than 100 µM each time. Also, the TGI in [13], in assay [14] and in assay [15] was greater than 100 µM each time.

As for `Cc1c(/C=N/NC(=O)c2cc(Br)cc(Br)c2O)c(=O)n(-c2ccccc2)n1C`, the TGI in [1], in [2], in assay [3], in assay [4], in [5] and in [7] was greater than 100 µM throughout. Further, the TGI in assay [8], in assay [9], in assay [10], in assay [11], in assay [12] and in assay [13] was greater than 100 µM throughout. The TGI in [14] and in assay [15] was greater than 100 µM each time.

Consider `O=C1[C@H]2ON(c3ccccc3)C(c3ccccc3Cl)[C@H]2C(=O)N1c1ccc(Cc2ccc(N3C(=O)[C@@H]4ON(c5ccccc5)C(c5ccccc5Cl)[C@@H]4C3=O)cc2)cc1` (stereo partly specified), for which the TGI in assay [1], in assay [2], in assay [3], in assay [4], in [5] and in [6] was greater than 100 µM each time. Besides, the TGI in assay [7], in assay [8], in [9], in assay [10], in assay [11] and in assay [12] was greater than 100 µM in each case. Further, the values for the TGI in assay [13], in assay [14] and in assay [15] were 73.5 µM, greater than 100 µM and greater than 100 µM, respectively.

For the compound `CC(=O)OCC1OC(OC2C(CSC3OC(COC(C)=O)C(OC(C)=O)C(OC(C)=O)C3OC(C)=O)OC(OC(C)=O)C(OC(C)=O)C2OC(C)=O)C(OC(C)=O)C(OC(C)=O)C1OC(C)=O` (stereo unspecified), the TGI in assay [1], in assay [2], in assay [4], in assay [5], in [6] and in assay [7] was greater than 100 µM in each case. Moreover, the TGI in assay [8], in assay [10], in assay [11], in assay [12], in assay [13] and in assay [14] was greater than 100 µM each time. Further, the TGI in assay [15] is greater than 100 µM.

As for `NC1C[C@H](n2cc(/C=C/Br)c(=O)[nH]c2=O)C[C@@H]1CO` (stereo partly specified), the TGI in assay [2], in [3], in assay [4], in assay [5], in assay [8] and in [9] was greater than 100 µM each time. Besides, the TGI in assay [12], in assay [13], in [14] and in [15] was greater than 100 µM throughout.

As to `CC1(C)C(=NNC(=O)C[N+](C)(C)C)C(C)(C)C1=NNC(=O)C[N+](C)(C)C`, the TGI in assay [1], in [2], in [3], in [4], in assay [5] and in [6] was greater than 100 µM each time. Besides, the TGI in assay [7], in assay [8], in assay [9], in [10], in assay [12] and in assay [13] was greater than 100 µM in each case. Also, the TGI in [14] and in assay [15] was greater than 100 µM throughout.
